Results as given in patent publication US7220784B2, “Substituted stilbenes and their reactions” (priority 2000, dated 2007).
“And” between values parts separate entries of the source, which are not always exact repeats. Equal values may be shown once.

Columns and labels:
[1] = test system: liver metastatic T50:80 tumours; experiment: Anti-vascular effects, histological examination of T50:80 tumours; type: in vivo, mice
Procedure: (2) Competition for the colchicine binding site on tubulin. The figure quoted represents the % of ^3H-colchicine bound following co-incubation of test compound and ^3H-cochicine with isolated tubulin. Where ester pro-drugs were used the experiments were carried out in the presence and absence of porcine liver esterase. • (3) Cytotoxicity/growth inhibition assay. This was carried out by the MTT assay. • (4) Permeability (shape-change) assay in endothelial cells. This was carried out using a method based on that of Watts et al. (Anticancer Res., 17, 71–75, (1997)). This involved the diffusion of a fluorescently labelled dextran through a barrier of endothelial cells (HUVEC) grown to confluence on a porous membrane. […] The anti-vascular effects of the agents were monitored by either positron emission tomography (PET) or by histologogical examination following treatment of mice bearing T50:80 murine breast tumours, or H460 human lung tumours. • (6) Anti-tumour efficacy of agents was determined in xenografts of H460 human lung cancer. Animals (n=5) were trated either with 5 daily injections and tumour size measured with time following treatment. • (7) The pharmacokinetic profile of agents was determined in mice following injection with drug. Blood was taken at various times following treatment and analysed by HPLC with UV detection. […]

[2] = test system: colchicine binding site on tubulin; experiment: Competition for the colchicine binding site on tubulin; further: test concentration or dose not given here

COc1ccc(C=Cc2cc(OC)c(OC)c(OC)c2)cc1F [Compound 97-64H]
examination of tumours for vascular damage ([1]; 2/3 or 3/4 of MTD, 2 hr, 4 hr, 24 hr, 48 hr after administration): tumour necrosis, blocked vessels, infiltration with red blood cells
time by which vascular effects are seen ([1]; mouse, in vivo): ≤ 2 h
Colchicine % Inhibition [2]: 79% and 70%
